# Where two headings read alike, the source gives them in different places.
# Tests used:
# [1] = molecular target: T1, ATR (Homo sapiens (Human), UniProt Q13535); test: Enzyme Assay - ATR (Test (a)); assay type: biochemical; conditions: ATR from HeLa nuclear extract, GST-p53N66 substrate, 3 μM ATP, arithmetic mean
# Method: ATR-antibody complexes were isolated from nuclear extract by incubating with protein A-Sepharose beads (Sigma, #P3476) for 1 hour and then through centrifugation to recover the beads. […] After 10 minutes with gentle shaking, ATP was added to a final concentration of 3 μM and the reaction continued at 37° C. for an additional 1 hour. […] Enhanced chemiluminescence solution (NEN, Boston, Mass.) was used to produce a signal and chemiluminescent detection was carried out via a TopCount (Packard, Meriden, Conn.) plate reader.
# [2] = molecular target: T1, ATR; test: Cellular Assay - ATR, phosphorylation of Chk1 (Ser 345) in HT29 cells after 4NQO (Test (b)); assay type: cell-based; conditions: cell assay Test (b); pChk1 Ser345 in HT29 cells, 3 μM 4NQO; arithmetic mean
# Source text: ATM and ATR have distinct and overlapping responses to DNA damage. They must participate together and responses must be co-ordinated. Both pathways may be activated by ionising radiation, however only ATR is activated by UV. Since UV treatment is not practical for use in a high throughput cell assay, the UV mimetic 4NQ0 (Sigma) was chosen to activate the ATR DNA damage response pathway.
# Chk1, a downstream protein kinase of ATR, plays a key role in DNA damage checkpoint control. Activation of Chk1 involves phosphorylation of Ser317 and Ser345 (regarded as the preferential target for phosphorylation/activation by ATR). […] Compounds dose ranges were created by diluting in 100% DMSO and then further into assay media (EMEM, 10% FCS, 1% glutamine) using a Labcyte Echo Acoustic dispensing instrument. Cells were plated in 384 well Costar plates at 9×10^4 cells per ml in 40 μL EMEM, 10% FCS, 1% glutamine and grown for 24 hrs. Following addition of compound the cells were incubated for 60 minutes. A final concentration of 3 μM 4NQ0 (prepared in 100% DMSO) was then added using the Labcyte Echo and the cells incubated for a further 60mins. The cells are then fixed by adding 40 μL 3.7% v/v formaldehyde solution for 20 minutes. After removal of fix, cells were washed with PBS and permeabilised in 40 μL of PBS containing 0.1% Triton™ X-100. Cells are then washed and 15 μl primary antibody solution (pChk1 Ser345) added and the plates incubated at 4° C. overnight. […] The plates are washed and left in 40 μl PBS. Plates were then read on an ArrayS can Vti instrument to determine staining intensities, and dose responses were obtained and used to determine the IC50 values for the compounds.
# [3] = system: HT29 cells; test: Cellular SRB assay, potentiation of carboplatin (Test (c)); assay type: cell-based, human; conditions: for PF50: HT29; for IC50: Homo sapiens, HT-29, HT29 cell growth, read-out: IC50
# Method: (c) Cellular—SRB Assay The potentiation factor (PF50) for compounds is a measure of the fold increase in effect of a chemotherapeutic agent, when used in combination with an ATR inhibitor. Specifically, this is calculated as a ratio of the IC50 of control cell growth in the presence of a chemotherapeutic agent, typically carboplatin, divided by the IC50 of cell growth in the presence of this agent and the ATR inhibitor of interest. For this purpose, HT29 cells were seeded at the appropriate density to ensure exponential growth throughout the time of the assay (typically 1000-1500 cells) in each well of a 96-well plate, in a volume of 80 μl and incubated overnight at 37° C. Subsequently, cells were dosed with either DMSO vehicle, or treated with test compounds at fixed concentrations (typically 1, 0.3 & 0.1 μM). Following a one hour incubation at 37° C., the cells were further treated with a 10 point dose response of the chemotherapeutic agent, based on it's known sensitivity (typically 30-0.001 ug/ml for carboplatin). Cells were left to grow for 5 days at 37° C., after which time cell growth was assessed using the sulforhodamine B (SRB) assay (Skehan, P et al, 1990 New colorimetric cytotoxic assay for anticancer-drug screening. J. Natl. Cancer Inst. 82, 1107-1112.). Specifically, the media was removed and cells fixed with 100 μl of ice cold 10% (w/v) trichloroacetic acid. The plates were then incubated at 4° C. for 20 minutes prior to washing 4 times with water. Each well was then stained with 100 μL of 0.4% (w/v) SRB in 1% acetic acid for 20 minutes before a further 4 washes with 1% acetic acid. Plates were then dried for 2 hours at room temperature and the dye was solubilized by the addition of 100 μL Tris Base pH 8.5 into each well. Plates were shaken before measuring optical density at 564 nm (OD564). In order to calculate the PF50, the OD564 values obtained for the dose-response curve of chemotherapeutic agent were expressed as a percentage of the value obtained from cells treated with vehicle alone. Similarly, to act as a control for inclusion of the ATR inhibitor, values from the chemotherapeutic agent tested in combination with a fixed ATR inhibitor concentration were expressed as a percentage of the value obtained from cells treated with the corresponding concentration of ATR inhibitor alone. From these internally-controlled curves, IC50 values were calculated and the PF50 was determined as the ratio of these values, as described above. Compounds are compared using the PF50 value at concentrations of ATR inhibitor that show minimal growth inhibition on their own. IC50 values were calculated with XLfit (IDBS, Surrey UK) using the dose response, 4 parameter logistic model #203. Top (max) and bottom (min) curve fitting was free and not locked to 100% to 0% respectively.
# [4] = potentiation factor of Carboplatin at 0.03 uM ATR inhibitor
# [5] = potentiation factor of Carboplatin at 0.1 uM ATR inhibitor
# [6] = potentiation factor of Carboplatin at 0.3 uM ATR inhibitor
# [7] = IC50 of Carboplatin + 0.03 uM ATR inhibitor
# [8] = IC50 of Carboplatin + 0.1 uM ATR inhibitor
# [9] = IC50 of Carboplatin + 0.3 uM ATR inhibitor
# T1 sequence (Q13535 whole entry): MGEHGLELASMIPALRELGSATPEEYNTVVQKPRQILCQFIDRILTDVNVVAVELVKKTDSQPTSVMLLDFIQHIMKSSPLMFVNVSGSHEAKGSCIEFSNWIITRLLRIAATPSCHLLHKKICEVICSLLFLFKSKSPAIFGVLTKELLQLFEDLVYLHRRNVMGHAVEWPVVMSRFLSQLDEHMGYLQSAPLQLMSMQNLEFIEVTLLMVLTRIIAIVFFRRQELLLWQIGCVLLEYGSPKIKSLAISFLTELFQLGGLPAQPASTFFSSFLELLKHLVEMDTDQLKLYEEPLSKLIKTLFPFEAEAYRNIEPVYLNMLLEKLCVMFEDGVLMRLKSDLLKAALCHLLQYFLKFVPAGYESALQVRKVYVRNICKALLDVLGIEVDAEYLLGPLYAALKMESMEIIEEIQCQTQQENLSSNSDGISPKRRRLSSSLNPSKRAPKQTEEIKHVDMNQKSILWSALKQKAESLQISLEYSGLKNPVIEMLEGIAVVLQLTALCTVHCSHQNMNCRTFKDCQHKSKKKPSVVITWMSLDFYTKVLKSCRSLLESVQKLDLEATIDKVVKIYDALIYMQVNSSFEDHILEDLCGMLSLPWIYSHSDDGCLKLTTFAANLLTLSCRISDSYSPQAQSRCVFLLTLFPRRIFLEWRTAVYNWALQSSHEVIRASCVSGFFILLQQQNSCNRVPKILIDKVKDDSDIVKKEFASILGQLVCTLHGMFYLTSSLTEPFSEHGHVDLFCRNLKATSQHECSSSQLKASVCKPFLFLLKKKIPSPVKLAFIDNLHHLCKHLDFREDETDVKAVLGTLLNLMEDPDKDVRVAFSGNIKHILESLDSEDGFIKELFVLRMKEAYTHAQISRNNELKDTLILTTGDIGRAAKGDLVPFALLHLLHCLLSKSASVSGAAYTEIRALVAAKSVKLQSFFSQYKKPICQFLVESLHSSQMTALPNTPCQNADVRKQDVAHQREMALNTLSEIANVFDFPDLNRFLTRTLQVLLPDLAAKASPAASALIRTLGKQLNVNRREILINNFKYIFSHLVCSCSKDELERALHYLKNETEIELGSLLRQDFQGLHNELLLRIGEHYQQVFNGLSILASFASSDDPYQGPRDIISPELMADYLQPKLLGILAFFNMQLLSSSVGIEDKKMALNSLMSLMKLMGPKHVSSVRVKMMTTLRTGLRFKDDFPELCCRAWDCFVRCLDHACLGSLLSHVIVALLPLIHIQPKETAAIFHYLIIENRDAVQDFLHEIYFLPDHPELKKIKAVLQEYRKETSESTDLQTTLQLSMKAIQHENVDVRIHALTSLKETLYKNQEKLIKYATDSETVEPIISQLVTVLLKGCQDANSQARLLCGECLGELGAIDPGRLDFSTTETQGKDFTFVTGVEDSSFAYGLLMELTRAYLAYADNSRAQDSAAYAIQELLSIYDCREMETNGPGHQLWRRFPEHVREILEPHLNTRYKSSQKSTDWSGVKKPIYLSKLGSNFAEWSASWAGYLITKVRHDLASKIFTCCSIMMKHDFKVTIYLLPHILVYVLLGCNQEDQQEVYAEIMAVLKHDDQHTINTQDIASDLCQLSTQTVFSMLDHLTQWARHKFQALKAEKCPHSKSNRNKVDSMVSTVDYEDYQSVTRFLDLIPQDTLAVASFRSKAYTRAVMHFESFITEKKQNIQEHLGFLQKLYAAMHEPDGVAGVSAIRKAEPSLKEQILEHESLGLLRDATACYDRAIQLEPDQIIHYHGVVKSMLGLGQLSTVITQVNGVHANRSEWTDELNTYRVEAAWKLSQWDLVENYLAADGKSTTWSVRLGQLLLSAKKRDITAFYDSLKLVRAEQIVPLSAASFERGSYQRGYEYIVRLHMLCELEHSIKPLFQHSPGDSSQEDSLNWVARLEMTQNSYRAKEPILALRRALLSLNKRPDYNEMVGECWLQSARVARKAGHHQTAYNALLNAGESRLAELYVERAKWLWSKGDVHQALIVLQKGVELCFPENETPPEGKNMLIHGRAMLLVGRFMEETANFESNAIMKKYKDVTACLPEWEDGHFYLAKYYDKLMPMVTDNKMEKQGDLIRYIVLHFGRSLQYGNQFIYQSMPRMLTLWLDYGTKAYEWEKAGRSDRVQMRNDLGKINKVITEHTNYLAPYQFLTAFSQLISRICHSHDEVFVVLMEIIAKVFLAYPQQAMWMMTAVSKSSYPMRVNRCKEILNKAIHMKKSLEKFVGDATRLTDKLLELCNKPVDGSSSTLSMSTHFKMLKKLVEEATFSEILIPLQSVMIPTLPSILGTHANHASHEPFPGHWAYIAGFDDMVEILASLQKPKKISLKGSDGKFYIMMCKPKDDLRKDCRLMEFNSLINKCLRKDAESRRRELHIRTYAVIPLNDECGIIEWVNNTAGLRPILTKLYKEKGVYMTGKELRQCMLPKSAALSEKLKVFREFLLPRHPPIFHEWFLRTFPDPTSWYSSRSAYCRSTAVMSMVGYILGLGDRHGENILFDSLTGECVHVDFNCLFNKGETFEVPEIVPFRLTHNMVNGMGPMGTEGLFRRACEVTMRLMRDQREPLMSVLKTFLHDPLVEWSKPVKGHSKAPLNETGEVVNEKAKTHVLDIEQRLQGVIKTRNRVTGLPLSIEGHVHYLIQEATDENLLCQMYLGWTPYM
# T1 sequence (Q8WXE1 whole entry partner): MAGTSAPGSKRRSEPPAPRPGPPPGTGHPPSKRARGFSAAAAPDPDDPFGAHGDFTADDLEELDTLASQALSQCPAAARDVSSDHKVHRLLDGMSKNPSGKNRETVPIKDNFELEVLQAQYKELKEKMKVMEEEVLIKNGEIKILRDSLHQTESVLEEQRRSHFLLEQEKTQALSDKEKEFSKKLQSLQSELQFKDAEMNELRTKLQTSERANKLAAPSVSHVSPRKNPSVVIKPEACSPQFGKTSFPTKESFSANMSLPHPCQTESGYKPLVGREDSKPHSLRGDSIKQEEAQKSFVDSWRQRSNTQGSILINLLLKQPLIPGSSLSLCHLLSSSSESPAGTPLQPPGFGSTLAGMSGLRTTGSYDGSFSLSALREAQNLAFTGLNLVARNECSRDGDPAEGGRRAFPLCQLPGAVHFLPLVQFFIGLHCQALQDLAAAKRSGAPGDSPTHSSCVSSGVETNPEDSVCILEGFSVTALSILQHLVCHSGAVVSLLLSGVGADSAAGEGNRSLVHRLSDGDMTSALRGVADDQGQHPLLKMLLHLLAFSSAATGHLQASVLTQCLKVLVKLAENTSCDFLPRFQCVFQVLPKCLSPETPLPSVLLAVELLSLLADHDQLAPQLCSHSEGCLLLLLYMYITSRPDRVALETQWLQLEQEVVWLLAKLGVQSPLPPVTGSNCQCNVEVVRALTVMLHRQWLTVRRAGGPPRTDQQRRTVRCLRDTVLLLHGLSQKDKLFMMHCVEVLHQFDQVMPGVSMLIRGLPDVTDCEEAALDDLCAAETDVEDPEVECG
SMILES,IC50 [1] [nM],IC50 [2] [nM],"PF50 [3, 4]","PF50 [3, 5]","PF50 [3, 6]","IC50 [3, 7] [µg/mL]","IC50 [3, 8] [µg/mL]","IC50 [3, 9] [µg/mL]"
"C[C@@H]1COCCN1c1cc(C[S@](C)(=N)=O)nc(-c2ccnc3[nH]ccc23)n1 [Example 1.01, 4-{4-[(3R)-3-Methylmorpholin-4-yl]-6-[((R)—S-methylsulfonimidoyl)methyl]pyrimidin-2-yl}-1H-pyrrolo[2,3-b]pyridine]",34,581,,,,,,
"C[C@@H]1COCCN1c1cc(C2([S@](C)(=N)=O)CC2)nc(-c2ccnc3[nH]ccc23)n1 [Example 2.02, 4-{4-[(3R)-3-Methylmorpholin-4-yl]-6-[1-((R)—S-methylsulfonimidoyl)cyclopropyl]pyrimidin-2-yl}-1H-pyrrolo[2,3-b]pyridine]",,,1.331,1.966,4.211,9.39,6.37,2.99
"CNc1nc2ccccc2n1-c1nc(N2CCOC[C@H]2C)cc(C2([S@](C)(=N)=O)CC2)n1 [Example 2.03, N-Methyl-1-{4-[(3R)-3-methylmorpholin-4-yl]-6-[1-((R)—S-methylsulfonimidoyl)cyclopropyl]pyrimidin-2-yl}-1H-benzimidazol-2-amine]",,,2.057,5.887,18.721,5.74,2.01,0.63
